Laboratory results from patent publication US20050208124A1, “Drugs containing riboflavin-type compounds” (priority 2003, published 2005).
Read-outs that look alike come from different tables or passages of the source.

How the values were obtained:
[1] = tested on: SEB-induced shock mice; details: mouse, in vivo
[2] = tested on: TNF-α-stimulated mouse peritoneal macrophage; assay: IL-6 production from TNF-α-stimulated mouse peritoneal macrophage; format: cell-based; details: 10 ng/mL TNF-α, 24 h
[3] = tested on: human vascular endothelial cells (HUEC); assay: Active oxygen production in endothelial cells under high glucose load; format: cell-based; details: 30 mM glucose load, control 91.2, glucose alone 140.5
Description: Next, glucose was added to a glucose concentration of 30 mM on each plate, and the cells were CO2 incubated for 1 hour at 37° C. After completion of culture the cells were collected and intracellular active oxygen was measured by FACS Calibur (Flow Cytometry System; Becton Dickinson Japan) using […] (intracellular active oxygen measurement kit; […] Pharma).

[4] = tested on: HWEC cells; assay: IL-8 production in endothelial cells under high glucose load; format: cell-based, human; details: 30 mM glucose load, 2 h, glucose alone 1196 pg/mL
[5] = tested on: LPS-induced shock mice; details: male ICR mice, LPS 12 mg/kg i.v., 20 mg/kg i.v. 6 h after LPS
[6] = tested on: AAPH-intoxication mice; assay: AAPH-intoxication mouse model: survival; details: male ICR mice, AAPH 125 mg/kg i.p., 7 days
[7] = tested on: TNF-α-induced shock mice; assay: TNF-α-induced shock mouse model: survival; details: human TNF-α + D-galactosamine i.p., 20 mg/kg i.v. immediately after, 7 days

Cc1cc2nc3c(=O)[nH]c(=O)nc-3n(C[C@H](O)[C@H](O)[C@H](O)COP(=O)([O-])O)c2cc1C.[Na+] [5′-FMN-Na, riboflavin-5′-phosphate sodium ester]
plasma IL-6 concentration [1]: suppression effect | plasma INF-γ concentration [1]: suppression effect | plasma MIP-2 concentration [1]: suppression effect | TNF-α-induced IL-6 production ([2]; 1.56 μg/mL 5′-FMN-Na): suppressed | TNF-α-induced IL-6 production ([2]; 25 μg/mL 5′-FMN-Na): suppressed | fluorescent strength (mean fluorescence), intracellular active oxygen ([3]; 0.1 μg/mL): 114.2 | fluorescent strength (mean fluorescence), intracellular active oxygen ([3]; 0.39 μg/mL): 125.0 | fluorescent strength (mean fluorescence), intracellular active oxygen ([3]; 1.56 μg/mL): 111.9 | fluorescent strength (mean fluorescence), intracellular active oxygen ([3]; 6.25 μg/mL): 89.5 | IL-8 concentration in the medium ([4]; 6.25 μg/mL): 297 pg/mL | IL-8 concentration in the medium ([4]; 25 μg/mL): 168 pg/mL | plasma GM-CSF concentration ([5]; 21 h after LPS (second peak)): tended to depress | plasma MIP-2 concentration ([5]; after 9 h, maintained after 21 h): had declined | plasma IL-1β concentration ([5]; between 9 and 12 h after LPS, vs control): decreased rapidly | plasma NO level (total NO2 and NO3) ([5]; between 9 and 18 h): no suppression effect | plasma INF-γ concentration ([5]; between 9 and 18 h after LPS, vs control): declined rapidly | plasma NO level (total NO2 and NO3) ([5]; between 21 and 24 h): had a suppression effect | plasma IL-6 concentration ([5]; maintained after 21 h, vs control): rapid decline | plasma MCP-1 concentration ([5]; maintained until 21 h after LPS): depressed | plasma IL-10 concentration ([5]; second peak (21 h after LPS)): depressed | plasma TNF-α concentration ([5]; second peak (21 h after LPS)): depressed | Survival number ([6]; 20 mg/kg i.p. (−24 h, 0)): 7/10 | Survival rate (%) ([6]; 20 mg/kg i.p. (−24 h, 0), P < 0.05 vs. Saline): 70% | Survival number ([6]; 20 mg/kg i.v. (−24 h, 0, +1 h)): 6/10 | Survival rate (%) ([6]; 20 mg/kg i.v. (−24 h, 0, +1 h)): 60% | Survival number ([7]; female ICR mice): 7/10 | Survival rate (%) ([7]; female ICR mice): 70% | Survival number ([7]; male BALB/c mice): 6/10 | Survival rate (%) ([7]; male BALB/c mice, P < 0.05 vs. Saline, 20 mg/kg): 60%
